The target in the test is Serine/threonine-protein phosphatase 2A catalytic subunit alpha (Homo sapiens) (UniProt P67775). Briefly: Inhibitory activity against protein phosphatase (PP2A) using fluorescein diphosphate as substrate.
Chain of Serine/threonine-protein phosphatase 2A catalytic subunit alpha (Homo sapiens) (P67775 whole entry, looked up): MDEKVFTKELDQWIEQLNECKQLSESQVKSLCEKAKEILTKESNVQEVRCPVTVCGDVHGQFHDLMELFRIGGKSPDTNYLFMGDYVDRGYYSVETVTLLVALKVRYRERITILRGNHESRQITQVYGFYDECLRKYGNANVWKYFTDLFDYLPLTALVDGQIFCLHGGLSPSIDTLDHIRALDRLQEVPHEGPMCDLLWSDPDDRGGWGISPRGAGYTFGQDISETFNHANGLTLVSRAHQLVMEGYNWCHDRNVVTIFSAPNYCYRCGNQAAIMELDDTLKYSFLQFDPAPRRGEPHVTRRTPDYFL

Usually IC50 stands for the concentration that gives 50% inhibition. Molecule `CC(C)(O)[C@H]1CC[C@](C)([C@@H](O)CC[C@](O)(CO)C2=CC[C@H]3O[C@@H]([C@]4(C)CC[C@@H](Br)C(C)(C)O4)CC[C@]3(C)O2)O1` returned an IC50 of less than 10 µM.

For `C=C([C@@H](O)C[C@H](O)[C@@]1(C)CC[C@H](C(C)(C)O)O1)[C@H]1CC[C@H]2O[C@@H]([C@]3(C)CC[C@@H](Br)C(C)(C)O3)CC[C@]2(C)O1`, the IC50 is less than 10 µM.

The values above are taken from BindingDB's records for doi:10.1016/s0960-894x(03)00136-7 (2003).
